Measurements: PubChem BioAssay AID2060893 (Molecular Pharmacology Branch, DTP, NCI, 2025)

system: K86415-001-R-J1-PDC complex spheroids, viability; assay: Anticancer human tumor K86415-001-R-J1-PDC patient-derived lung adenocarcinoma cell line growth inhibition [RAS]; settings: second compound 1 µM; first compound 0.0316 µM; stronger effect = lower value
Procedure, shortened: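 Multi-cell-type spheroids: tumor cells plus HUVEC endothelial cells and mesenchymal stem cells. RAS-pathway inhibitors were combined with targeted agents, each dosed in half-log steps down from clinical Cmax, or from 10 microM when Cmax was unknown.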
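Further: spheroids exposed to agents for seven days before readout.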

| Structure (SMILES) | viability, T/C |
| --- | --- |
| CCC(CC)c1cc(NC2CCC(N)C2)n2nccc2n1 (configuration not stated) + C=CC(=O)N1CCN(c2nc(OCC3CCCN3C)nc3c(F)c(-c4nc(N)cc(C)c4C(F)(F)F)c(Cl)cc23)C(C)C1 | 10.5% |
| CCN1CCN(Cc2ccc(Nc3ncc(F)c(-c4cc(F)c5nc(C)n(C(C)C)c5c4)n3)nc2)CC1 + C=CC(=O)N1CCN(c2nc(OCC3CCCN3C)nc3c(F)c(-c4nc(N)cc(C)c4C(F)(F)F)c(Cl)cc23)C(C)C1 | 11.7% |
| Cc1nc(N2CCC3(CC2)COC(C)C3N)c(CO)nc1Sc1ccnc(N)c1Cl (configuration not stated) + C=CC(=O)N1CCN(c2nc(OCC3CCCN3C)nc3c(F)c(-c4nc(N)cc(C)c4C(F)(F)F)c(Cl)cc23)C(C)C1 | 7.46% |
| NC1c2ccccc2OC12CCN(c1cnc3c(N4CCCc5ncccc54)n[nH]c3n1)CC2 (configuration not stated) + C=CC(=O)N1CCN(c2nc(OCC3CCCN3C)nc3c(F)c(-c4nc(N)cc(C)c4C(F)(F)F)c(Cl)cc23)C(C)C1 | 5.95% |

same assay, conditions: second compound 1 µM; first compound 0.1 µM; stronger effect = lower value

| Structure (SMILES) | viability, T/C |
| --- | --- |
| CC1(O)CCCC1n1c(=O)c(C(F)F)cc2cnc(NC3CCN(S(C)(=O)=O)CC3)nc21 (configuration not stated) + C=CC(=O)N1CCN(c2nc(OCC3CCCN3C)nc3c(F)c(-c4nc(N)cc(C)c4C(F)(F)F)c(Cl)cc23)C(C)C1 | 10.3% |
| CCC(CC)c1cc(NC2CCC(N)C2)n2nccc2n1 (configuration not stated) + C=CC(=O)N1CCN(c2nc(OCC3CCCN3C)nc3c(F)c(-c4nc(N)cc(C)c4C(F)(F)F)c(Cl)cc23)C(C)C1 | 13.1% |
| CCN1CCN(Cc2ccc(Nc3ncc(F)c(-c4cc(F)c5nc(C)n(C(C)C)c5c4)n3)nc2)CC1 + C=CC(=O)N1CCN(c2nc(OCC3CCCN3C)nc3c(F)c(-c4nc(N)cc(C)c4C(F)(F)F)c(Cl)cc23)C(C)C1 | 10.2% |
| Cc1nc(N2CCC3(CC2)COC(C)C3N)c(CO)nc1Sc1ccnc(N)c1Cl (configuration not stated) + C=CC(=O)N1CCN(c2nc(OCC3CCCN3C)nc3c(F)c(-c4nc(N)cc(C)c4C(F)(F)F)c(Cl)cc23)C(C)C1 | 7.12% |
| NC1c2ccccc2OC12CCN(c1cnc3c(N4CCCc5ncccc54)n[nH]c3n1)CC2 (configuration not stated) + C=CC(=O)N1CCN(c2nc(OCC3CCCN3C)nc3c(F)c(-c4nc(N)cc(C)c4C(F)(F)F)c(Cl)cc23)C(C)C1 | 6.16% |

same assay, conditions: second compound 1 µM; first compound 0.316 µM; stronger effect = lower value

| Structure (SMILES) | viability, T/C |
| --- | --- |
| CC1(O)CCCC1n1c(=O)c(C(F)F)cc2cnc(NC3CCN(S(C)(=O)=O)CC3)nc21 (configuration not stated) + C=CC(=O)N1CCN(c2nc(OCC3CCCN3C)nc3c(F)c(-c4nc(N)cc(C)c4C(F)(F)F)c(Cl)cc23)C(C)C1 | 13.7% |
| CCC(CC)c1cc(NC2CCC(N)C2)n2nccc2n1 (configuration not stated) + C=CC(=O)N1CCN(c2nc(OCC3CCCN3C)nc3c(F)c(-c4nc(N)cc(C)c4C(F)(F)F)c(Cl)cc23)C(C)C1 | 15.1% |
| CCN1CCN(Cc2ccc(Nc3ncc(F)c(-c4cc(F)c5nc(C)n(C(C)C)c5c4)n3)nc2)CC1 + C=CC(=O)N1CCN(c2nc(OCC3CCCN3C)nc3c(F)c(-c4nc(N)cc(C)c4C(F)(F)F)c(Cl)cc23)C(C)C1 | 11.2% |
| Cc1nc(N2CCC3(CC2)COC(C)C3N)c(CO)nc1Sc1ccnc(N)c1Cl (configuration not stated) + C=CC(=O)N1CCN(c2nc(OCC3CCCN3C)nc3c(F)c(-c4nc(N)cc(C)c4C(F)(F)F)c(Cl)cc23)C(C)C1 | 6.04% |
| NC1c2ccccc2OC12CCN(c1cnc3c(N4CCCc5ncccc54)n[nH]c3n1)CC2 (configuration not stated) + C=CC(=O)N1CCN(c2nc(OCC3CCCN3C)nc3c(F)c(-c4nc(N)cc(C)c4C(F)(F)F)c(Cl)cc23)C(C)C1 | 5% |

same assay, conditions: second compound 1 µM; first compound 1 µM; stronger effect = lower value

| Structure (SMILES) | viability, T/C |
| --- | --- |
| CC1(O)CCCC1n1c(=O)c(C(F)F)cc2cnc(NC3CCN(S(C)(=O)=O)CC3)nc21 (configuration not stated) + C=CC(=O)N1CCN(c2nc(OCC3CCCN3C)nc3c(F)c(-c4nc(N)cc(C)c4C(F)(F)F)c(Cl)cc23)C(C)C1 | 14.7% |
| CCC(CC)c1cc(NC2CCC(N)C2)n2nccc2n1 (configuration not stated) + C=CC(=O)N1CCN(c2nc(OCC3CCCN3C)nc3c(F)c(-c4nc(N)cc(C)c4C(F)(F)F)c(Cl)cc23)C(C)C1 | 14.7% |
| CCN1CCN(Cc2ccc(Nc3ncc(F)c(-c4cc(F)c5nc(C)n(C(C)C)c5c4)n3)nc2)CC1 + C=CC(=O)N1CCN(c2nc(OCC3CCCN3C)nc3c(F)c(-c4nc(N)cc(C)c4C(F)(F)F)c(Cl)cc23)C(C)C1 | 18.3% |
| Cc1nc(N2CCC3(CC2)COC(C)C3N)c(CO)nc1Sc1ccnc(N)c1Cl (configuration not stated) + C=CC(=O)N1CCN(c2nc(OCC3CCCN3C)nc3c(F)c(-c4nc(N)cc(C)c4C(F)(F)F)c(Cl)cc23)C(C)C1 | 4.71% |
| NC1c2ccccc2OC12CCN(c1cnc3c(N4CCCc5ncccc54)n[nH]c3n1)CC2 (configuration not stated) + C=CC(=O)N1CCN(c2nc(OCC3CCCN3C)nc3c(F)c(-c4nc(N)cc(C)c4C(F)(F)F)c(Cl)cc23)C(C)C1 | 4.63% |

same assay, conditions: second compound 1 µM; first compound 3.16 µM; stronger effect = lower value

| Structure (SMILES) | viability, T/C |
| --- | --- |
| CC1(O)CCCC1n1c(=O)c(C(F)F)cc2cnc(NC3CCN(S(C)(=O)=O)CC3)nc21 (configuration not stated) + C=CC(=O)N1CCN(c2nc(OCC3CCCN3C)nc3c(F)c(-c4nc(N)cc(C)c4C(F)(F)F)c(Cl)cc23)C(C)C1 | 18.9% |
| CCC(CC)c1cc(NC2CCC(N)C2)n2nccc2n1 (configuration not stated) + C=CC(=O)N1CCN(c2nc(OCC3CCCN3C)nc3c(F)c(-c4nc(N)cc(C)c4C(F)(F)F)c(Cl)cc23)C(C)C1 | 3.95% |
| Cc1nc(N2CCC3(CC2)COC(C)C3N)c(CO)nc1Sc1ccnc(N)c1Cl (configuration not stated) + C=CC(=O)N1CCN(c2nc(OCC3CCCN3C)nc3c(F)c(-c4nc(N)cc(C)c4C(F)(F)F)c(Cl)cc23)C(C)C1 | 4.06% |
| NC1c2ccccc2OC12CCN(c1cnc3c(N4CCCc5ncccc54)n[nH]c3n1)CC2 (configuration not stated) + C=CC(=O)N1CCN(c2nc(OCC3CCCN3C)nc3c(F)c(-c4nc(N)cc(C)c4C(F)(F)F)c(Cl)cc23)C(C)C1 | 5.74% |

same assay, conditions: second compound 1 µM; first compound 10 µM; stronger effect = lower value

| Structure (SMILES) | viability, T/C |
| --- | --- |
| CC1(O)CCCC1n1c(=O)c(C(F)F)cc2cnc(NC3CCN(S(C)(=O)=O)CC3)nc21 (configuration not stated) + C=CC(=O)N1CCN(c2nc(OCC3CCCN3C)nc3c(F)c(-c4nc(N)cc(C)c4C(F)(F)F)c(Cl)cc23)C(C)C1 | 5.93% |
| CCC(CC)c1cc(NC2CCC(N)C2)n2nccc2n1 (configuration not stated) + C=CC(=O)N1CCN(c2nc(OCC3CCCN3C)nc3c(F)c(-c4nc(N)cc(C)c4C(F)(F)F)c(Cl)cc23)C(C)C1 | 4.47% |
| Cc1nc(N2CCC3(CC2)COC(C)C3N)c(CO)nc1Sc1ccnc(N)c1Cl (configuration not stated) + C=CC(=O)N1CCN(c2nc(OCC3CCCN3C)nc3c(F)c(-c4nc(N)cc(C)c4C(F)(F)F)c(Cl)cc23)C(C)C1 | 4.08% |
| NC1c2ccccc2OC12CCN(c1cnc3c(N4CCCc5ncccc54)n[nH]c3n1)CC2 (configuration not stated) + C=CC(=O)N1CCN(c2nc(OCC3CCCN3C)nc3c(F)c(-c4nc(N)cc(C)c4C(F)(F)F)c(Cl)cc23)C(C)C1 | 5.91% |
